From patent US11214803B2, “Modulators of YAP1 expression” (Ionis Pharmaceuticals, Inc., priority 2019, dated 2022)
pIC50: −log10 of the molar value. Strand notation (5' to 3'): a small letter for the sugar, then the base; units joined by * are phosphorothioate-linked, units joined directly phosphodiester-linked; [ ] holds rarer units or linkages, { } end groups; capitals alone tell only the bases. k = constrained ethyl (cEt); [5mC] = 5-methylcytosine; d = 2'-deoxy (DNA)

Legend:
Yap1 mRNA [1] = test: Dose-dependent inhibition of human Yap1 in SNU-449 cells (Example 9, RTS36584); assay type: cell-based; details: free uptake; for % UTC (Yap1 mRNA): approximately 48 hours
Summary of the method: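 SNU-449 cells (10,000/well) took up modified oligonucleotides by free uptake at a range of doses for about 48 h. Yap1 mRNA was quantified with primer-probe set RTS36584, normalised to RIBOGREEN total RNA and expressed as % untreated control; IC50 from linear regression on log/linear plot.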

[2] = Tolerability in CD-1 mice, plasma chemistry markers (Example 16); assay type: in vivo; details: male CD-1 mice, 50 mg/kg s.c. twice a week for four weeks (8 treatments), day 27
Procedure: CD-1 mice were treated with modified oligonucleotides selected from studies described above and evaluated for changes in the levels of various plasma chemistry markers.
(§1) Groups of four male CD-1 mice at 4-5 weeks of age (obtained from Charles River) were injected subcutaneously twice a week for four weeks (for a total of 8 treatments) with 50 mg/kg of modified oligonucleotides. One group of male CD-1 mice was injected with PBS. Mice were euthanized on day 27 post start of treatment (24 hrs following the final administration).

[3] = Tolerability in CD-1 mice, body and organ weights (Example 16); assay type: in vivo; details: male CD-1 mice, 50 mg/kg s.c. twice a week for four weeks (8 treatments), end of study (day 27)
Procedure: as §1
Body weights of CD-1 mice were measured at the end of the study, and the average body weight for each group is presented in the table below. Modified oligonucleotides that caused any changes in organ weights outside the expected range for modified oligonucleotides were excluded from further studies.

[4] = Tolerability in Sprague-Dawley rats, plasma chemistry markers (Example 20); assay type: in vivo; details: male Sprague-Dawley rats, 50 mg/kg s.c. weekly for 6 weeks (7 doses), 48 hours after last dose
Procedure: Sprague-Dawley rats are a multipurpose model used for safety and efficacy evaluations. The rats were treated with Ionis modified oligonucleotides from the studies described in the Examples above and evaluated for changes in the levels of various plasma chemistry markers.

[5] = Tolerability in Sprague-Dawley rats, body and organ weights (Example 20); assay type: in vivo; details: male Sprague-Dawley rats, 50 mg/kg s.c. weekly for 6 weeks (7 doses)
Procedure: Terminal body weight was measured prior to necropsy. Ionis oligonucleotides that caused any changes in organ weights outside the expected range for modified oligonucleotides were excluded from further studies.

[6] = Tolerability in Sprague-Dawley rats, kidney function, urine total protein to creatinine ratio (Example 20); details: male Sprague-Dawley rats, 50 mg/kg subcutaneously weekly for 6 weeks (total 7 doses)
Procedure: Male Sprague-Dawley rats were maintained on a 12-hour light/dark cycle and fed ad libitum with Purina normal rat chow. Groups of 4 Sprague-Dawley rats each were weekly injected subcutaneously with 50 mg/kg of Ionis oligonucleotide for 6 weeks (total 7 doses). Forty-eight hours after the last dose, the rats were euthanized; and organs, urine and plasma were harvested for further analysis.
To evaluate the effect of Ionis oligonucleotides on kidney function, urinary levels of total protein and creatinine were measured using an automated clinical chemistry analyzer (Hitachi Olympus AU400c, Melville, N.Y.).

Yap1 mRNA [7] = test: Yap1 mRNA levels in SNU449 xenograft tumors, alone and in combination with sorafenib (second Example 30); assay type: in vivo, human; details: SNU449 xenograft mice, oligonucleotide 50 mg/kg, sorafenib 30 mg/kg orally, tumors collected day 119 post implantation, relative to PBS
Procedure: Modified oligonucleotides described in the studies above were tested in a hepatocellular carcinoma SNU449 xenograft tumor model. In addition to testing the modified oligonucleotide by itself, combination therapy with sorafenib was also tested. A control oligonucleotide 792169, described herein above, was also tested.
(§2) Five million SNU449 cells in 30% matrigel were implanted subcutaneously into the fatpads of female NOD.Cg-Prkdcscid II2rgtmlWjl/SzJ mice (from Jackson Laboratory) at 4-6 weeks of age. 43 days post implantation (when tumors had reached approximately 100 mm^3 in size), groups of eight mice each were administered with 50 mg/kg modified oligonucleotide daily for 10 days (loading dose), following which they were administered with 50 mg/kg modified oligonucleotide four times a week for one week, following which they were dosed with 50 mg/kg modified oligonucleotide thrice weekly until the end of the study. […] Animals were sacrificed, and tumors were collected on day 119 post implantation.
Yap1 mRNA knockdown in tumors was measured by RT-qPCR as previously described using the Human Yap1 primer-probe set RTS4814. Yap1 mRNA levels were normalized to actin-beta content, as measured by primer probe set RTS5002. Results are presented in the tables below as percent control of the amount of Yap1 mRNA relative to PBS treated animals (% control).

SNU449 xenograft tumor = test: Tumor volume in SNU449 xenograft tumor model, alone and in combination with sorafenib (second Example 30); assay type: in vivo, human; details: SNU449 xenograft, oligonucleotide 50 mg/kg, sorafenib 30 mg/kg orally
Procedure: Modified oligonucleotides described in the studies above were tested in a hepatocellular carcinoma SNU449 xenograft tumor model. […] A control oligonucleotide 792169, described herein above, was also tested.
as §2
Tumor volumes were also measured at the indicated days in the table below.

ERK1/2 = test: Measurement of ERK activation (pERK/ERK) in SNU449 xenograft model with sorafenib (second Example 30); assay type: in vivo, human; details: SNU449 xenograft tumors, pERK/ERK relative to PBS control, oligonucleotide 50 mg/kg, sorafenib 30 mg/kg orally
Procedure: Five million SNU449 cells in 30% matrigel were implanted subcutaneously into the fatpads of female NOD.Cg-Prkdcscid II2rgtmlWjl/SzJ mice (from Jackson Laboratory) at 4-6 weeks of age. 43 days post implantation (when tumors had reached approximately 100 mm^3 in size), groups of eight mice each were administered with 50 mg/kg modified oligonucleotide daily for 10 days (loading dose), following which they were administered with 50 mg/kg modified oligonucleotide four times a week for one week, following which they were dosed with 50 mg/kg modified oligonucleotide thrice weekly until the end of the study.
Protein analysis was carried out using standard procedures. […] ERK protein levels were compared to internal control GAPDH. […] The secondary antibody used was donkey anti-rabbit NA934, GE Healthcare. pERK/ERK levels were calculated relative to PBS control to determine % activation of ERK1/2.

## 1076187 (kG*kA*kT*dT*dT*dA*dG*dG*dA*dT*dG*d[5mC]*dA*kT*kG*kG; antisense) [compound 1076187]
Yap1 mRNA [1]; 31.3 nM
  % UTC (Yap1 mRNA): 68 % UTC
Yap1 mRNA [1]; 125.0 nM
  % UTC (Yap1 mRNA): 46 % UTC
Yap1 mRNA [1]; 500.0 nM
  % UTC (Yap1 mRNA): 24 % UTC
Yap1 mRNA [1]; 2000.00 nM
  % UTC (Yap1 mRNA): 12 % UTC
Yap1 mRNA [1]; linear regression on a log/linear plot
  pIC50: 7.00
[2]
  ALT: 57 U/L
  AST: 90 U/L
  Albumin: 2.3 g/dL
  BUN: 20 mg/dL
  TBIL: 0.18 mg/dL
[3]
  Kidney weight: 0.56 g
  Liver weight: 1.95 g
  Spleen weight: 0.14 g
  body weight: 34 g
[4]
  ALB: 2.91 g/dL
  ALT: 54 U/L
  AST: 113 U/L
  BUN: 21 mg/dL
  TBIL: 0.10 mg/dL
[5]; end of study
  Kidney weight: 3.0 g
  Liver weight: 17 g
  Spleen weight: 1.7 g
[5]; terminal, prior to necropsy
  body weight: 344 g
[6]
  URINE P/C ratio (total protein to creatinine ratio): 5

## CNC(=O)c1cc(Oc2ccc(NC(=O)Nc3ccc(Cl)c(C(F)(F)F)c3)cc2)ccn1 [sorafenib]
Yap1 mRNA [7]
  Yap1 mRNA levels in tumors: 103 % control
SNU449 xenograft tumor; day 43 post tumor implantation
  Average Tumor Volume: 112 mm^3
SNU449 xenograft tumor; day 46 post tumor implantation
  Average Tumor Volume: 145 mm^3
SNU449 xenograft tumor; day 50 post tumor implantation
  Average Tumor Volume: 159 mm^3
SNU449 xenograft tumor; day 53 post tumor implantation
  Average Tumor Volume: 173 mm^3
SNU449 xenograft tumor; day 57 post tumor implantation
  Average Tumor Volume: 200 mm^3
SNU449 xenograft tumor; day 67 post tumor implantation
  Average Tumor Volume: 277 mm^3
SNU449 xenograft tumor; day 71 post tumor implantation
  Average Tumor Volume: 249 mm^3
SNU449 xenograft tumor; day 75 post tumor implantation
  Average Tumor Volume: 283 mm^3
SNU449 xenograft tumor; day 78 post tumor implantation
  Average Tumor Volume: 322 mm^3
SNU449 xenograft tumor; day 81 post tumor implantation
  Average Tumor Volume: 391 mm^3
SNU449 xenograft tumor; day 85 post tumor implantation
  Average Tumor Volume: 416 mm^3
SNU449 xenograft tumor; day 88 post tumor implantation
  Average Tumor Volume: 451 mm^3
SNU449 xenograft tumor; day 92 post tumor implantation
  Average Tumor Volume: 508 mm^3
SNU449 xenograft tumor; day 94 post tumor implantation
  Average Tumor Volume: 581 mm^3
SNU449 xenograft tumor; day 98 post tumor implantation
  Average Tumor Volume: 625 mm^3
SNU449 xenograft tumor; day 101 post tumor implantation
  Average Tumor Volume: 685 mm^3
SNU449 xenograft tumor; day 105 post tumor implantation
  Average Tumor Volume: 671 mm^3
SNU449 xenograft tumor; day 108 post tumor implantation
  Average Tumor Volume: 663 mm^3
SNU449 xenograft tumor; day 119 post tumor implantation
  Average Tumor Volume: 747 mm^3
ERK1/2
  % activation of ERK1/2: 142%
